Measurements from patent US20220324835A1 (Nurix Therapeutics, Inc., priority 2018, published 2022).
Read-outs that look alike come from different tables or passages of the source.

Assays:
T-cell [1] = assay: CD25 cell surface staining on T-cells co-stimulated with anti-CD3 and anti-CD28 antibody (Biological Example 2); type: cell-based, human; conditions: Homo sapiens, T-cell, primary human total T-cells
In short: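 T-cells were stimulated with anti-CD3 antibody alone or with anti-CD28 antibody, in the presence or absence of Cbl-b inhibitor. IL-2 secretion or CD25 surface staining was measured, and values expressed as fold over the uninhibited baseline […].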

Cbl-b = Cbl-b (Homo sapiens, UniProt Q13191); assay: Cbl-b inhibition assay (Cbl-b activity assay, FRET, Biological Example 1; 100 mM NaCl, 60 nM Src kinase); type: biochemical; conditions: upper bound stated in text lists; read-out: IC50 values in the Cbl-b inhibition assay of Biological Example 1
Cbl-b, sequence (Q13191 36-427): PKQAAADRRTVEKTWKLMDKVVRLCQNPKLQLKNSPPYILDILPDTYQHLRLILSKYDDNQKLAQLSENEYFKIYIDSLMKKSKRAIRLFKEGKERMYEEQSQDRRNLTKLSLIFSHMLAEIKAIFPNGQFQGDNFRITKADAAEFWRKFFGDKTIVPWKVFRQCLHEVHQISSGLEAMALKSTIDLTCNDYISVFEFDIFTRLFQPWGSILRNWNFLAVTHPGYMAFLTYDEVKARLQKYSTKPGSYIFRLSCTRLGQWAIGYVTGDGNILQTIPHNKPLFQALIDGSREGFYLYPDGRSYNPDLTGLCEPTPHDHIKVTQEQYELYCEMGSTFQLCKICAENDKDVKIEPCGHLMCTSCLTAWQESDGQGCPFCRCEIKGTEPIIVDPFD
In short: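 Binding-based Cbl-b activity assay. Src-phosphorylated, N-terminally biotin-Avi-tagged Cbl-b recruits labelled UbcH5B-Ub, and proximity to streptavidin-terbium yields FRET.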

T-cell [2] = assay: IL-2 secretion from T-cells stimulated with anti-CD3 antibody alone (Biological Example 2); type: cell-based, human; conditions: T-cell, fold change over baseline, primary human total T-cells, read-out: IL-2 secretion Anti-CD3 stimulation; for fold induction at 1 µM: 1 μM Cbl-b inhibitor; for fold induction at 8 µM: 8 μM Cbl-b inhibitor
[3] = fold change over baseline, 0.3 μM Cbl-b inhibitor, read-out: CD25 staining Anti-CD3/Anti-CD28 stimulation
[4] = fold change over baseline, 1 μM Cbl-b inhibitor, read-out: CD25 staining Anti-CD3/Anti-CD28 stimulation
[5] = fold change over baseline, 4 μM Cbl-b inhibitor, read-out: CD25 staining Anti-CD3/Anti-CD28 stimulation
[6] = 0.3 μM compound, baseline = anti-CD3/anti-CD28 stimulated cells without inhibitor, read-out: CD25 staining, Anti-CD3/Anti-CD28 stimulation, fold change over baseline
[7] = 1 μM compound, baseline = anti-CD3/anti-CD28 stimulated cells without inhibitor, read-out: CD25 staining, Anti-CD3/Anti-CD28 stimulation, fold change over baseline
[8] = 4 μM compound, baseline = anti-CD3/anti-CD28 stimulated cells without inhibitor, read-out: CD25 staining, Anti-CD3/Anti-CD28 stimulation, fold change over baseline

Structure (SMILES)	fold induction at 0.3 µM (T-cell [1]; [3])	fold induction at 1 µM (T-cell [1]; [4])	fold induction at 4 µM (T-cell [1]; [5])	IC50 (Cbl-b)	fold induction at 1 µM (T-cell [2])	fold induction at 8 µM (T-cell [2])	fold induction at 0.3 µM (T-cell [1]; [6])	fold induction at 1 µM (T-cell [1]; [7])	fold induction at 4 µM (T-cell [1]; [8])
C[C@H](Sc1nncn1C)c1cccc(NC(=O)c2cc(C(=O)N3CC(O)C3)ccn2)c1 [Compound 148, (S)-4-(3-hydroxyazetidine-1-carbonyl)-N-(3-(1-((4-methyl-4H-1,2,4-triazol-3-yl)thio)ethyl)phenyl)picolinamide]	< 1	< 1	< 1	≤ 500 nM	< 0.05	< 0.05	–	–	–
C[C@H](Cc1nncn1C)c1cccc(NC(=O)c2cccc(S(C)(=O)=O)n2)c1 [Compound 185, (R)-N-(3-(1-(4-methyl-4H-1,2,4-triazol-3-yl)propan-2-yl)phenyl)-6-(methylsulfonyl)picolinamide]	1.01 to 1.3	> 1.76	> 1.76	≤ 1000 nM	0.051 to 0.1	0.051 to 0.1	–	–	–
Cn1cnnc1C(F)(F)C(C)(F)c1cccc(N2Cc3c(cccc3C(F)(F)F)C2=O)c1 (racemic) [Compound 296, 2-(3-(1,1,2-trifluoro-1-(4-methyl-4H-1,2,4-triazol-3-yl)propan-2-yl)phenyl)-4-(trifluoromethyl)isoindolin-1-one]	1.01 to 1.3	1.01 to 1.3	1.01 to 1.3	≤ 1000 nM	> 0.201	> 0.201	–	–	–
C[C@H](Cc1nncn1C)c1cc(NCCO)nc(N2Cc3c(cccc3C(F)(F)F)C2=O)c1 [Compound 357, (R)-2-(6-(2-hydroxyethylamino)-4-(1-(4-methyl-4H-1,2,4-triazol-3-yl)propan-2-yl)pyridin-2-yl)-4-(trifluoromethyl)isoindolin-1-one]	1.01 to 1.3	1.01 to 1.3	1.01 to 1.3	≤ 300 nM	0.051 to 0.1	0.151 to 0.2	–	–	–
Cc1cc(C(=O)Nc2cccc([C@@](C)(F)C(F)(F)c3nncn3C)c2)nc(C2CC2)n1 [Compound 344, (R)-2-Cyclopropyl-6-methyl-N-(3-(1,1,2-trifluoro-1-(4-methyl-4H-1,2,4-triazol-3-yl)propan-2-yl)phenyl)pyrimidine-4-carboxamide]	1.01 to 1.3	1.31 to 1.5	1.31 to 1.5	≤ 300 nM	0.101 to 0.15	> 0.201	–	–	–
C[C@H](Sc1nncn1C)c1cccc(NC(=O)c2cc(C(F)(F)F)ccn2)c1 [Compound 32, (S)-N-(3-(1-((4-Methyl-4H-1,2,4-triazol-3-yl)thio)ethyl)phenyl)-4-(trifluoromethyl)picolinamide]	1.01 to 1.3	1.01 to 1.3	1.01 to 1.3	≤ 10000 nM	< 0.05	0.101 to 0.15	–	–	–
Cc1cc2c(c(C3CC3)n1)CN(c1cccc([C@H](C)Cc3nncn3C)c1)C2=O [Compound 372, 4-cyclopropyl-6-methyl-2-{3-[(2R)-1-(4-methyl-4H-1,2,4-triazol-3-yl)propan-2-yl]phenyl}-1H,2H,3H-pyrrolo[3,4-c]pyridin-1-one]	–	–	–	–	–	–	1.01 to 1.3	1.01 to 1.3	1.01 to 1.3
CNCc1ccc(C(=O)Nc2cccc([C@H](C)Cc3nncn3C)c2)nc1C1CC1 [Compound 376, (R)-6-cyclopropyl-N-(3-(1-(4-methyl-4H-1,2,4-triazol-3-yl)propan-2-yl)phenyl)-5-((methylamino)methyl)picolinamide]	–	–	–	≤ 300 nM	–	–	1.01 to 1.3	1.31 to 1.5	1.51 to 1.75
Cn1cnnc1[C@@H]1C[C@@H]1c1cccc(N2Cc3c(ccnc3C(F)(F)F)C2=O)c1 [Compound 369, 2-{3-[(1S,2R)-2-(4-methyl-4H-1,2,4-triazol-3-yl)cyclopropyl]phenyl}-4-(trifluoromethyl)-1H,2H,3H-pyrrolo[3,4-c]pyridin-1-one]	–	–	–	–	–	–	1.01 to 1.3	1.01 to 1.3	1.01 to 1.3
